Experimental data: PMC5392334, “Discovery and characterization of a novel irreversible EGFR mutants selective and potent kinase inhibitor CHMFL-EGFR-26 with a distinct binding mode” (Oncotarget, 2017)

Assays:
Format in all cases: binding
[1] = molecular target: T1, ASK2 (Homo sapiens, UniProt O95382); assay: KinomeScan; conditions: read-out: % control
T1 construct: purchased DiscoveRx KINOMEscan

[2] = molecular target: T2, FGFR2 (Homo sapiens, UniProt P21802); assay: KinomeScan; conditions: read-out: % control
T2 construct: purchased DiscoveRx KINOMEscan

[3] = molecular target: T3, JNK1 (Homo sapiens, UniProt P45983); assay: KinomeScan; conditions: read-out: % control
T3 construct: purchased DiscoveRx KINOMEscan

[4] = molecular target: T4, MAP4K5 (Homo sapiens, UniProt Q9Y4K4); assay: KinomeScan; conditions: read-out: % control
T4 construct: purchased DiscoveRx KINOMEscan

[5] = molecular target: T5, VPS34 (Homo sapiens, UniProt Q8NEB9); assay: KinomeScan; conditions: read-out: % control
T5 construct: purchased DiscoveRx KINOMEscan

[6] = molecular target: T6, YANK1 (Homo sapiens, UniProt Q8WU08); assay: KinomeScan; conditions: read-out: % control
T6 construct: purchased DiscoveRx KINOMEscan

[7] = molecular target: T7, ERK3 (Homo sapiens, UniProt Q16659); assay: KinomeScan; conditions: read-out: % control
T7 construct: purchased DiscoveRx KINOMEscan

[8] = tested on: EGFR(L747-T751del,Sins); assay: KinomeScan; conditions: 1μM
[9] = molecular target: T8, NEK2 (Homo sapiens, UniProt P51955); assay: KinomeScan; conditions: read-out: % control
T8 construct: purchased DiscoveRx KINOMEscan

[10] = tested on: 468 kinases/mutants; assay: KinomeScan selectivity profile (panel); conditions: 1μM
From the text: In order to better understand CHMFL-EGFR-26's selectivity, we then tested it in DiscoveRx's KinomeScan™ assay. […] Given the fact that KinomeScan™ is a binding assay and sometimes cannot truly reflect the compound inhibitory activity, we then used Invitrogen SelectScreen® assay to test these potential off-targets (Supplementary Table 2). […] This was not surprising because EGFR, JAK3, HER2, HER4 and TEC family kinases (BTK, BLK and BMX) all share a similar cysteine residue at the identical position analogous to Cys 797 in EGFR in the hinge binding area.

[11] = molecular target: T9, RET(M918T) (Homo sapiens, UniProt P07949, M918T); assay: KinomeScan; conditions: read-out: % control
T9 construct: purchased DiscoveRx KINOMEscan

[12] = molecular target: T10, MUSK (Homo sapiens, UniProt O15146); assay: KinomeScan; conditions: read-out: % control
T10 construct: purchased DiscoveRx KINOMEscan

[13] = molecular target: T11, KIT-autoinhibited (Homo sapiens, UniProt P10721); assay: KinomeScan; conditions: read-out: % control
T11 construct: purchased DiscoveRx KINOMEscan

[14] = molecular target: T12, RSK2(Kin.Dom.2-C-terminal) (Homo sapiens, UniProt P51812); assay: KinomeScan; conditions: read-out: % control
T12 construct: RSK2(Kin.Dom.2-C-terminal); purchased DiscoveRx KINOMEscan

[15] = molecular target: T13, MAP3K2 (Homo sapiens, UniProt Q9Y2U5); assay: KinomeScan; conditions: read-out: % control
T13 construct: purchased DiscoveRx KINOMEscan

[16] = molecular target: T14, QSK (Homo sapiens, UniProt Q9Y2K2); assay: KinomeScan; conditions: read-out: % control
T14 construct: purchased DiscoveRx KINOMEscan

[17] = molecular target: T15, CASK (Homo sapiens, UniProt O14936); assay: KinomeScan; conditions: read-out: % control
T15 construct: purchased DiscoveRx KINOMEscan

[18] = molecular target: T16, PRKCQ (Homo sapiens, UniProt Q04759); assay: KinomeScan; conditions: read-out: % control
T16 construct: purchased DiscoveRx KINOMEscan

[19] = molecular target: T17, RSK2(Kin.Dom.1-N-terminal) (Homo sapiens, UniProt P51812); assay: KinomeScan; conditions: read-out: % control
T17 construct: RSK2(Kin.Dom.1-N-terminal); purchased DiscoveRx KINOMEscan

[20] = molecular target: T18, BUB1 (Homo sapiens, UniProt O43683); assay: KinomeScan; conditions: read-out: % control
T18 construct: purchased DiscoveRx KINOMEscan

[21] = molecular target: T19, GSK3B (Homo sapiens, UniProt P49841); assay: KinomeScan; conditions: read-out: % control
T19 construct: purchased DiscoveRx KINOMEscan

[22] = molecular target: T20, PIM1 (Homo sapiens, UniProt P11309); assay: KinomeScan; conditions: read-out: % control
T20 construct: purchased DiscoveRx KINOMEscan

[23] = molecular target: T21, ABL1(Q252H)-phosphorylated (Homo sapiens, UniProt P00519, Q252H); assay: KinomeScan; conditions: read-out: % control
T21 construct: purchased DiscoveRx KINOMEscan

[24] = molecular target: T22, FER (Homo sapiens, UniProt P16591); assay: KinomeScan; conditions: read-out: % control
T22 construct: purchased DiscoveRx KINOMEscan

[25] = molecular target: T23, AURKC (Homo sapiens, UniProt Q9UQB9); assay: KinomeScan; conditions: read-out: % control
T23 construct: purchased DiscoveRx KINOMEscan

[26] = molecular target: T24, TYRO3 (Homo sapiens, UniProt Q06418); assay: KinomeScan; conditions: read-out: % control
T24 construct: purchased DiscoveRx KINOMEscan

[27] = molecular target: T25, LIMK1 (Homo sapiens, UniProt P53667); assay: KinomeScan; conditions: read-out: % control
T25 construct: purchased DiscoveRx KINOMEscan

[28] = molecular target: T26, EPHA8 (Homo sapiens, UniProt P29322); assay: KinomeScan; conditions: read-out: % control
T26 construct: purchased DiscoveRx KINOMEscan

[29] = molecular target: T27, MEK2 (Homo sapiens, UniProt P36507); assay: KinomeScan; conditions: read-out: % control
T27 construct: purchased DiscoveRx KINOMEscan

[30] = molecular target: T28, PDGFRA (Homo sapiens, UniProt P16234); assay: KinomeScan; conditions: read-out: % control
T28 construct: purchased DiscoveRx KINOMEscan

[31] = molecular target: T29, AURKB (Homo sapiens, UniProt Q96GD4); assay: KinomeScan; conditions: read-out: % control
T29 construct: purchased DiscoveRx KINOMEscan

[32] = molecular target: T30, FLT3(D835V) (Homo sapiens, UniProt P36888, D835V); assay: KinomeScan; conditions: read-out: % control
T30 construct: purchased DiscoveRx KINOMEscan

[33] = molecular target: T31, BMPR1A (Homo sapiens, UniProt P36894); assay: KinomeScan; conditions: read-out: % control
T31 construct: purchased DiscoveRx KINOMEscan

[34] = molecular target: T32, ACVR1 (Homo sapiens, UniProt Q04771); assay: KinomeScan; conditions: read-out: % control
T32 construct: purchased DiscoveRx KINOMEscan

[35] = molecular target: T33, PAK7 (Homo sapiens, UniProt Q9P286); assay: KinomeScan; conditions: read-out: % control
T33 construct: purchased DiscoveRx KINOMEscan

[36] = molecular target: T34, CSK (Homo sapiens, UniProt P41240); assay: KinomeScan; conditions: read-out: % control
T34 construct: purchased DiscoveRx KINOMEscan

[37] = molecular target: T35, ABL1(F317L)-nonphosphorylated (Homo sapiens, UniProt P00519, F317L); assay: KinomeScan; conditions: read-out: % control
T35 construct: purchased DiscoveRx KINOMEscan

[38] = molecular target: T36, MRCKB (Homo sapiens, UniProt Q9Y5S2); assay: KinomeScan; conditions: read-out: % control
T36 construct: purchased DiscoveRx KINOMEscan

[39] = molecular target: T37, TGFBR1 (Homo sapiens, UniProt P36897); assay: KinomeScan; conditions: read-out: % control
T37 construct: purchased DiscoveRx KINOMEscan

[40] = molecular target: T38, DRAK2 (Homo sapiens, UniProt O94768); assay: KinomeScan; conditions: read-out: % control
T38 construct: purchased DiscoveRx KINOMEscan

T4 sequence (Q9Y4K4 whole entry): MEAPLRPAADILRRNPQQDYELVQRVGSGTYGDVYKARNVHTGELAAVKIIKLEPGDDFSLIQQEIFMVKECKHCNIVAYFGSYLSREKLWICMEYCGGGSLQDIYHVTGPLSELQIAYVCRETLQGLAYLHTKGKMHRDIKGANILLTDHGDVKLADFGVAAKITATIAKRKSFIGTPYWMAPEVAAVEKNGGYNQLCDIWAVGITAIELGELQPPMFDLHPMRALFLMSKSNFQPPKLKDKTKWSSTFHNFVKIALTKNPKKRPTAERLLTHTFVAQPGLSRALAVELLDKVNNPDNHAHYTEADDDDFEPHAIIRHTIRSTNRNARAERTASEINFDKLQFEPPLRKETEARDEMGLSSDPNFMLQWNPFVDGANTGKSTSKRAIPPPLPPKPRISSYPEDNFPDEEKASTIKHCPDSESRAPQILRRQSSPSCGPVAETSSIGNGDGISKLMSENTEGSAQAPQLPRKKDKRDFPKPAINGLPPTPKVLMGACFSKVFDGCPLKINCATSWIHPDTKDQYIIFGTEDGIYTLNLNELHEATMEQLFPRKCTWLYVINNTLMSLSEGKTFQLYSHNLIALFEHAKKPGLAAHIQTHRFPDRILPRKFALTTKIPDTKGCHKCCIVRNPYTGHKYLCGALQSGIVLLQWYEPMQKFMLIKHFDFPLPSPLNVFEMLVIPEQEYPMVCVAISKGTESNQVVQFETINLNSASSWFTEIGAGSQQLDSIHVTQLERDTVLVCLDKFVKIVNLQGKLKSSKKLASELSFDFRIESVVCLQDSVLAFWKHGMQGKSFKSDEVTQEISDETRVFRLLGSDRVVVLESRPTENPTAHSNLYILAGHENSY
T20 sequence (P11309 whole entry): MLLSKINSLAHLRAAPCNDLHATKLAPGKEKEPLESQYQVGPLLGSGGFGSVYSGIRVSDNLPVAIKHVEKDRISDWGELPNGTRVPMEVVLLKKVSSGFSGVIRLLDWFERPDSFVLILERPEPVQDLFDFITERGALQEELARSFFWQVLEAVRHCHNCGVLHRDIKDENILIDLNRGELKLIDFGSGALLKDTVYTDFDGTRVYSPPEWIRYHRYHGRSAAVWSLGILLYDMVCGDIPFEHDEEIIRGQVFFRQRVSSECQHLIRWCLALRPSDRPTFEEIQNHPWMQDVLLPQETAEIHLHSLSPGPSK
T22 sequence (P16591 whole entry): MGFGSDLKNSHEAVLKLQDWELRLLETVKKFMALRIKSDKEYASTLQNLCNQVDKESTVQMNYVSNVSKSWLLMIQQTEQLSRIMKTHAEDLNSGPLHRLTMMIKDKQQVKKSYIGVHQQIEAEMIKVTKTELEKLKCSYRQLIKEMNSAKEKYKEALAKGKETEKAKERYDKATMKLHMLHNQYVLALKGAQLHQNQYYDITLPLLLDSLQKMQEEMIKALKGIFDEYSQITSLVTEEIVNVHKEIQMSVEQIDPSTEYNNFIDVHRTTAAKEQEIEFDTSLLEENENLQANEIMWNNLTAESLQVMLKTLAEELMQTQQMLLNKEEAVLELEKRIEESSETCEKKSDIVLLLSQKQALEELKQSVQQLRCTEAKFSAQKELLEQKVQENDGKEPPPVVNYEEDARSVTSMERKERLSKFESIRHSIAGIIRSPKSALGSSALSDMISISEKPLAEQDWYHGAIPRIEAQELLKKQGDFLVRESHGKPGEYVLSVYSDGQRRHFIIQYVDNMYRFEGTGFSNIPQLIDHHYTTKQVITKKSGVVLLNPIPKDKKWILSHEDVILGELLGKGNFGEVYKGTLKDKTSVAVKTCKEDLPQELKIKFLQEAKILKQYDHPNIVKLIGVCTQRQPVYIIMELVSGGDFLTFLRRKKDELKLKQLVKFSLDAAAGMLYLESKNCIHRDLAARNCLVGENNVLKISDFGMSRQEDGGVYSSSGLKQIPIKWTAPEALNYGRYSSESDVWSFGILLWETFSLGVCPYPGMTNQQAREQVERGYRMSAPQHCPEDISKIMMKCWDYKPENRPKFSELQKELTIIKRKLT
T11 sequence (P10721 26-976): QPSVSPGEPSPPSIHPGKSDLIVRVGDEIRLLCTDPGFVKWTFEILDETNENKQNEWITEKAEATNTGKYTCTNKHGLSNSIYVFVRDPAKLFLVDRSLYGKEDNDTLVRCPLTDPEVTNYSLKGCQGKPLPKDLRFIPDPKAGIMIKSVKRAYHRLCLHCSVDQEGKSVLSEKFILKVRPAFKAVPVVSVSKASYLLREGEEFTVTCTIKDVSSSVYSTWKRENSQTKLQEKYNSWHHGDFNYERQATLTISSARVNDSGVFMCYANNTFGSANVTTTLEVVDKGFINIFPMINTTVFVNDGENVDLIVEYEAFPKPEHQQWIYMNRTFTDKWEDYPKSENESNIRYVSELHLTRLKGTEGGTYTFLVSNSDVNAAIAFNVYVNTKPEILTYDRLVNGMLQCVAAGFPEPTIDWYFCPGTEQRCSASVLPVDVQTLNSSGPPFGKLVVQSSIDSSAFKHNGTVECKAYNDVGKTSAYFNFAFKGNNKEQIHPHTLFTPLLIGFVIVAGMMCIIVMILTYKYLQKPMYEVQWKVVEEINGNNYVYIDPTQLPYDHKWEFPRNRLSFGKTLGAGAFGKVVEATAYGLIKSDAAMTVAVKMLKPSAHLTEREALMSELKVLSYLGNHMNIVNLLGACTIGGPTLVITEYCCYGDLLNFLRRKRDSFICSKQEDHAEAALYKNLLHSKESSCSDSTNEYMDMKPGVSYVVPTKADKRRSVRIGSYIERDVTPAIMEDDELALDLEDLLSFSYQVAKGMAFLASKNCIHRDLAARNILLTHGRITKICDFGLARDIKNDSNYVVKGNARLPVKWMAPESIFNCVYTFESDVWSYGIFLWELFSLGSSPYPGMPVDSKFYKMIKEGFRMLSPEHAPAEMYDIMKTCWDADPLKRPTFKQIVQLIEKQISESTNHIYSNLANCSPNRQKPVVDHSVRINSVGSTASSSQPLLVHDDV
T13 sequence (Q9Y2U5 whole entry): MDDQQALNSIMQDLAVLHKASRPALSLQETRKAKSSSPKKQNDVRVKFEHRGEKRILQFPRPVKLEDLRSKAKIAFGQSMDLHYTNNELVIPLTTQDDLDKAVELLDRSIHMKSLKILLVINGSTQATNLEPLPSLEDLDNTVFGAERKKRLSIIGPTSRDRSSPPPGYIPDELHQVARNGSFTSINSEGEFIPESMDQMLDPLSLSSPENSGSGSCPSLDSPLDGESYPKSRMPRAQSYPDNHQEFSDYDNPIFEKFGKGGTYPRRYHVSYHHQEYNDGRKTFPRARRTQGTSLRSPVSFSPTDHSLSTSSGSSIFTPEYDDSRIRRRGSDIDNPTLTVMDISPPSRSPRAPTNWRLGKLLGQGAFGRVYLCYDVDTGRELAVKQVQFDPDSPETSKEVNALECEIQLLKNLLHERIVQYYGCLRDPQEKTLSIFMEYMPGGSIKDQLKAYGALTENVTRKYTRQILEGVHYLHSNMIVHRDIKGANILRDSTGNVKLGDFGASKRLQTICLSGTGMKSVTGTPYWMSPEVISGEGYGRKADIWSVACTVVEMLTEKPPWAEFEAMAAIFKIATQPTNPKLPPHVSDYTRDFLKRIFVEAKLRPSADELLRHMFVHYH
T37 sequence (P36897 34-503): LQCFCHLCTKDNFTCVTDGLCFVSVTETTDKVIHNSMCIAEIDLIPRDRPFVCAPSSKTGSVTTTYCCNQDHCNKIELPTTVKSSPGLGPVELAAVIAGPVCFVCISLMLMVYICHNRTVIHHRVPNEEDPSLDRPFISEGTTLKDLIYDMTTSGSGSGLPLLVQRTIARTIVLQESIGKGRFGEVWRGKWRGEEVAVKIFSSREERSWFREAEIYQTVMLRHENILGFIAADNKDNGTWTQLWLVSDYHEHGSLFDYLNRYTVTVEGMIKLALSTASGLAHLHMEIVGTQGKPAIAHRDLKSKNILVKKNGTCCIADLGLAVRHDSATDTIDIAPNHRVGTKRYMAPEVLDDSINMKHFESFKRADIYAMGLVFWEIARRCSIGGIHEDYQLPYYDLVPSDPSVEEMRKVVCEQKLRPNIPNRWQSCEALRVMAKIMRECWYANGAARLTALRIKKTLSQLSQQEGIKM
T15 sequence (O14936 whole entry): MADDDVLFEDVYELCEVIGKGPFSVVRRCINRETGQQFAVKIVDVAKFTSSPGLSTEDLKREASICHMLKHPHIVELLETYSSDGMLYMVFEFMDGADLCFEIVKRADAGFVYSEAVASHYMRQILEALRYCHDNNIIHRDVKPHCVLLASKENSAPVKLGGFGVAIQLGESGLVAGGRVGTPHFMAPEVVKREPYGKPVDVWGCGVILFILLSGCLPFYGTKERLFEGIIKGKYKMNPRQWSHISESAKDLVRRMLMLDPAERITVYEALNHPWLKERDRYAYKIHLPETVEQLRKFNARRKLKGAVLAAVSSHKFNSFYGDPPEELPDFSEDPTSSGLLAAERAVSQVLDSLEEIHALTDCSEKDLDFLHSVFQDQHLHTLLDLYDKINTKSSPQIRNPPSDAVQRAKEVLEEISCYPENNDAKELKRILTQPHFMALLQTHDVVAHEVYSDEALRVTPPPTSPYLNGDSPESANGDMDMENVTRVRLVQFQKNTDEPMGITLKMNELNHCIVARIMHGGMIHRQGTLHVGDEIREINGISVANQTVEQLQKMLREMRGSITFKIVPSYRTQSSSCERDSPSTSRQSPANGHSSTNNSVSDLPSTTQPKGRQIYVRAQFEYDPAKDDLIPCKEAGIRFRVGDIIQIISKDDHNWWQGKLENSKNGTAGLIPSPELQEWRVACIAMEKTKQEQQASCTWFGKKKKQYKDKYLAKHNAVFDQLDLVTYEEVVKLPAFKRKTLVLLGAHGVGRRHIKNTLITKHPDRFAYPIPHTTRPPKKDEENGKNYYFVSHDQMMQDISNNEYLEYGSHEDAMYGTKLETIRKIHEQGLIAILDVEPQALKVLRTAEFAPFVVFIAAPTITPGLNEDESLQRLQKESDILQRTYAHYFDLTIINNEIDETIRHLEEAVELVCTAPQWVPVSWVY

C=CC(=O)N1CCC[C@@H](n2nc(-c3ccc(OCc4cccc(C)n4)c(Cl)c3)c3c(N)ncnc32)C1 [CHMFL-EGFR-26]
remaining binding at 1 µM [1]: 68%
remaining binding at 1 µM [2]: 100%
remaining binding at 1 µM [3]: 76%
remaining binding at 1 µM [4]: 54%
remaining binding at 1 µM [5]: 89%
remaining binding at 1 µM [6]: 3.6%
remaining binding at 1 µM [7]: 100%
% control [8]: 21%
remaining binding at 1 µM [9]: 18%
S score (1) [10]: 0.02
remaining binding at 1 µM [11]: 100%
remaining binding at 1 µM [12]: 84%
remaining binding at 1 µM [13]: 95%
remaining binding at 1 µM [14]: 100%
remaining binding at 1 µM [15]: 52%
remaining binding at 1 µM [16]: 71%
remaining binding at 1 µM [17]: 95%
remaining binding at 1 µM [18]: 57%
remaining binding at 1 µM [19]: 95%
remaining binding at 1 µM [20]: 76%
remaining binding at 1 µM [21]: 97%
remaining binding at 1 µM [22]: 97%
remaining binding at 1 µM [23]: 100%
remaining binding at 1 µM [24]: 56%
remaining binding at 1 µM [25]: 87%
remaining binding at 1 µM [26]: 53%
remaining binding at 1 µM [27]: 99%
remaining binding at 1 µM [28]: 89%
remaining binding at 1 µM [29]: 1.1%
remaining binding at 1 µM [30]: 100%
remaining binding at 1 µM [31]: 77%
remaining binding at 1 µM [32]: 70%
remaining binding at 1 µM [33]: 100%
remaining binding at 1 µM [34]: 96%
remaining binding at 1 µM [35]: 67%
remaining binding at 1 µM [36]: 32%
remaining binding at 1 µM [37]: 100%
remaining binding at 1 µM [38]: 80%
remaining binding at 1 µM [39]: 7%
remaining binding at 1 µM [40]: 91%
